Measurements reported in patent US20070049564A1 (Wyeth, priority 2005, published 2007).
Converted amounts (≈) assume the structure as drawn. Read-outs that look alike come from different tables or passages of the source.

Columns and labels:
[1] = test system: S. typhimurium GC 2172; assay: MIC, broth microdilution; conditions: Salmonella enterica, TYPHIMURIUM
[2] = test system: E. coli GC 6465; assay: MIC, broth microdilution; conditions: Escherichia coli
[3] = test system: S. pneumoniae* GC 4465; assay: MIC, broth microdilution; conditions: Streptococcus pneumoniae
[4] = test system: S. aureus GC 6467; assay: MIC, broth microdilution; conditions: Staphylococcus aureus
[5] = test system: E. faecalis GC 4555; assay: MIC, broth microdilution; conditions: Enterococcus faecalis
Protocol: (§1) Antimicrobial susceptibility testing. The in vitro activities of the antibiotics are determined by the broth microdilution method as recommended by the National Committee for Clinical Laboratory Standards (NCCLS) (1). Mueller-Hinton II broth (MHBII)(BBL Cockeysville, Md.) is the medium employed in the testing procedures. Microtiter plates containing serial dilutions of each antimicrobial agent are inoculated with each organism to yield the appropriate density (10^5 CFU/ml) in a 100 μl final volume. The plates are incubated for 18-22 hours at 35° C. in ambient air.
(§2) Representative compounds were first incubated in mouse serum for an hour prior to the in vitro testing against a panel of selected gram-positive and gram-negative bacteria strains. All compounds were also pre-incubated in water for an hour prior to testing as control. Representative compounds of Formula I were incubated in human serum prior to MIC determination.

[6] = test system: E. coli GC 2236; assay: MIC, broth microdilution; conditions: Escherichia coli
[7] = test system: S. epidermidis GC 4935; assay: MIC, broth microdilution; conditions: Staphylococcus epidermidis
Protocol: as §1, §2

[8] = test system: E. coli GC 2231; assay: MIC, broth microdilution; conditions: Escherichia coli
[9] = test system: E. coli GC 2234; assay: MIC, broth microdilution; conditions: Escherichia coli
[10] = test system: E. coli GC 2272; assay: MIC, broth microdilution; conditions: Escherichia coli
[11] = test system: S. aureus GC 6466; assay: MIC, broth microdilution; conditions: Staphylococcus aureus
[12] = test system: E. faecalis GC 2267; assay: MIC, broth microdilution; conditions: Enterococcus faecalis
[13] = test system: S. aureus GC 1131; assay: MIC, broth microdilution; conditions: Staphylococcus aureus
[14] = test system: Staph.; assay: Range of MIC for Staph. strains, including MRSA; conditions: Staphylococcus aureus, MRSA
[15] = test system: E. coli GC 2203; assay: MIC, broth microdilution; conditions: Escherichia coli
[16] = test system: S. aureus GC 1079; assay: MIC, broth microdilution; conditions: Staphylococcus aureus
[17] = test system: E. coli GC 2233; assay: MIC, broth microdilution; conditions: Escherichia coli
[18] = test system: E. coli GC 2235; assay: MIC, broth microdilution; conditions: Escherichia coli
[19] = test system: E. coli GC 4560; assay: MIC, broth microdilution; conditions: Escherichia coli
[20] = test system: E. faecium GC 4556; assay: MIC, broth microdilution; conditions: Enterococcus faecium
[21] = read-out: MINIMAL INHIBITORY CONCENTRATION MIC, pre-incubated in Mouse Serum
[22] = read-out: MINIMAL INHIBITORY CONCENTRATION MIC, pre-incubated in Water

Compound: CCCN(CC(=O)Nc1cc(N(C)C)c2c(c1O)C(=O)C1=C(O)[C@]3(O)C(=O)C(C(N)=O)=C(O)[C@@H](N(C)C)[C@@H]3C[C@@H]1C2)C(=O)OCOC(=O)c1ccc(C(C)(C)C)cc1 [Example 28, ({[(2-{[(5aR,6aS,7S,10aS)-9-(aminocarbonyl)-4,7-bis(dimethylamino)-1,8,10a,11-tetrahydroxy-10,12-dioxo-5,5a,6,6a,7,10,10a,12-octahydrotetracen-2-yl]amino}-2-oxoethyl)(propyl)amino]carbonyl}oxy)methyl 4-tert-butylbenzoate]
- MIC [1, 21]: 8 µg/mL (≈ 9.93 µM)
- MIC [1, 22]: > 64 µg/mL
- MIC ([2]; GC6465, read-out: MINIMAL INHIBITORY CONCENTRATION MIC, pre-incubated in Mouse Serum): 8 µg/mL (≈ 9.93 µM)
- MIC ([2]; GC6465, read-out: MINIMAL INHIBITORY CONCENTRATION MIC, pre-incubated in Water): > 64 µg/mL
- MIC [3, 21]: < 0.06 µg/mL
- MIC [3, 22]: < 0.06 µg/mL
- MIC ([4]; GC6467, read-out: MINIMAL INHIBITORY CONCENTRATION MIC, pre-incubated in Mouse Serum): 4 µg/mL (≈ 4.96 µM)
- MIC ([4]; GC6467, read-out: MINIMAL INHIBITORY CONCENTRATION MIC, pre-incubated in Water): 64 µg/mL (≈ 79.4 µM)
- MIC ([5]; GC4555, read-out: MINIMAL INHIBITORY CONCENTRATION MIC, pre-incubated in Mouse Serum): 0.25 µg/mL (≈ 0.31 µM)
- MIC ([5]; GC4555, read-out: MINIMAL INHIBITORY CONCENTRATION MIC, pre-incubated in Water): 64 µg/mL (≈ 79.4 µM)
- MIC ([6]; GC2236, read-out: MINIMAL INHIBITORY CONCENTRATION MIC, pre-incubated in Mouse Serum): 0.5 µg/mL (≈ 0.62 µM)
- MIC ([6]; GC2236, read-out: MINIMAL INHIBITORY CONCENTRATION MIC, pre-incubated in Water): > 64 µg/mL
- MIC ([7]; GC4935, read-out: MINIMAL INHIBITORY CONCENTRATION MIC, pre-incubated in Mouse Serum): 1 µg/mL (≈ 1.24 µM)
- MIC ([7]; GC4935, read-out: MINIMAL INHIBITORY CONCENTRATION MIC, pre-incubated in Water): 32 µg/mL (≈ 39.7 µM)
- MIC ([8]; GC2231, read-out: MINIMAL INHIBITORY CONCENTRATION MIC, pre-incubated in Mouse Serum): 1 µg/mL (≈ 1.24 µM)
- MIC ([8]; GC2231, read-out: MINIMAL INHIBITORY CONCENTRATION MIC, pre-incubated in Water): > 64 µg/mL
- MIC ([9]; GC2234, read-out: MINIMAL INHIBITORY CONCENTRATION MIC, pre-incubated in Mouse Serum): 0.25 µg/mL (≈ 0.31 µM)
- MIC ([9]; GC2234, read-out: MINIMAL INHIBITORY CONCENTRATION MIC, pre-incubated in Water): > 64 µg/mL
- MIC ([10]; GC2272, read-out: MINIMAL INHIBITORY CONCENTRATION MIC, pre-incubated in Mouse Serum): 0.5 µg/mL (≈ 0.62 µM)
- MIC ([10]; GC2272, read-out: MINIMAL INHIBITORY CONCENTRATION MIC, pre-incubated in Water): > 64 µg/mL
- MIC ([11]; GC6466, read-out: MINIMAL INHIBITORY CONCENTRATION MIC, pre-incubated in Mouse Serum): 0.5 µg/mL (≈ 0.62 µM)
- MIC ([11]; GC6466, read-out: MINIMAL INHIBITORY CONCENTRATION MIC, pre-incubated in Water): 4 µg/mL (≈ 4.96 µM)
- MIC ([12]; GC2267, read-out: MINIMAL INHIBITORY CONCENTRATION MIC, pre-incubated in Mouse Serum): 2 µg/mL (≈ 2.48 µM)
- MIC ([12]; GC2267, read-out: MINIMAL INHIBITORY CONCENTRATION MIC, pre-incubated in Water): 64 µg/mL (≈ 79.4 µM)
- MIC ([13]; GC1131, read-out: MINIMAL INHIBITORY CONCENTRATION MIC, pre-incubated in Mouse Serum): 0.5 µg/mL (≈ 0.62 µM)
- MIC ([13]; GC1131, read-out: MINIMAL INHIBITORY CONCENTRATION MIC, pre-incubated in Water): 32 µg/mL (≈ 39.7 µM)
- MIC ([14]; read-out: Range of MIC, Staph (Mouse Serum)): 0.5 to 4 µg/mL (≈ 0.62 to 4.96 µM)
- MIC ([14]; read-out: Range of MIC, Staph (Water)): 4 to 64 µg/mL (≈ 4.96 to 79.4 µM)
- MIC ([14]; read-out: Range of MIC, Staph. (mouse serum)): 0.5 to 4 µg/mL (≈ 0.62 to 4.96 µM)
- MIC ([14]; read-out: Range of MIC, Staph. (water)): 4 to 64 µg/mL (≈ 4.96 to 79.4 µM)
- MIC ([15]; GC2203, read-out: MINIMAL INHIBITORY CONCENTRATION MIC, pre-incubated in Mouse Serum): 0.5 µg/mL (≈ 0.62 µM)
- MIC ([15]; GC2203, read-out: MINIMAL INHIBITORY CONCENTRATION MIC, pre-incubated in Water): > 64 µg/mL
- MIC ([16]; GC1079, read-out: MINIMAL INHIBITORY CONCENTRATION MIC, pre-incubated in Mouse Serum): 2 µg/mL (≈ 2.48 µM)
- MIC ([16]; GC1079, read-out: MINIMAL INHIBITORY CONCENTRATION MIC, pre-incubated in Water): 64 µg/mL (≈ 79.4 µM)
- MIC ([17]; GC2233, read-out: MINIMAL INHIBITORY CONCENTRATION MIC, pre-incubated in Mouse Serum): 0.5 µg/mL (≈ 0.62 µM)
- MIC ([17]; GC2233, read-out: MINIMAL INHIBITORY CONCENTRATION MIC, pre-incubated in Water): > 64 µg/mL
- MIC ([18]; GC2235, read-out: MINIMAL INHIBITORY CONCENTRATION MIC, pre-incubated in Mouse Serum): 0.5 µg/mL (≈ 0.62 µM)
- MIC ([18]; GC2235, read-out: MINIMAL INHIBITORY CONCENTRATION MIC, pre-incubated in Water): > 64 µg/mL
- MIC ([19]; GC4560, read-out: MINIMAL INHIBITORY CONCENTRATION MIC, pre-incubated in Mouse Serum): 0.25 µg/mL (≈ 0.31 µM)
- MIC ([19]; GC4560, read-out: MINIMAL INHIBITORY CONCENTRATION MIC, pre-incubated in Water): > 64 µg/mL
- MIC ([20]; GC4556, read-out: MINIMAL INHIBITORY CONCENTRATION MIC, pre-incubated in Mouse Serum): 0.5 µg/mL (≈ 0.62 µM)
- MIC ([20]; GC4556, read-out: MINIMAL INHIBITORY CONCENTRATION MIC, pre-incubated in Water): 32 µg/mL (≈ 39.7 µM)
